Data on 36 molecules can be found in US8680139B2 (Progenra, priority 2009, dated 2014).

For orientation: EC50 means the concentration that produces a half-maximal response.

For this assay, the target named is T1, USP7 (Homo sapiens, UniProt Q93009).
T1 construct: full length human USP7 protein; made in house
T1 sequence (Q93009 whole entry): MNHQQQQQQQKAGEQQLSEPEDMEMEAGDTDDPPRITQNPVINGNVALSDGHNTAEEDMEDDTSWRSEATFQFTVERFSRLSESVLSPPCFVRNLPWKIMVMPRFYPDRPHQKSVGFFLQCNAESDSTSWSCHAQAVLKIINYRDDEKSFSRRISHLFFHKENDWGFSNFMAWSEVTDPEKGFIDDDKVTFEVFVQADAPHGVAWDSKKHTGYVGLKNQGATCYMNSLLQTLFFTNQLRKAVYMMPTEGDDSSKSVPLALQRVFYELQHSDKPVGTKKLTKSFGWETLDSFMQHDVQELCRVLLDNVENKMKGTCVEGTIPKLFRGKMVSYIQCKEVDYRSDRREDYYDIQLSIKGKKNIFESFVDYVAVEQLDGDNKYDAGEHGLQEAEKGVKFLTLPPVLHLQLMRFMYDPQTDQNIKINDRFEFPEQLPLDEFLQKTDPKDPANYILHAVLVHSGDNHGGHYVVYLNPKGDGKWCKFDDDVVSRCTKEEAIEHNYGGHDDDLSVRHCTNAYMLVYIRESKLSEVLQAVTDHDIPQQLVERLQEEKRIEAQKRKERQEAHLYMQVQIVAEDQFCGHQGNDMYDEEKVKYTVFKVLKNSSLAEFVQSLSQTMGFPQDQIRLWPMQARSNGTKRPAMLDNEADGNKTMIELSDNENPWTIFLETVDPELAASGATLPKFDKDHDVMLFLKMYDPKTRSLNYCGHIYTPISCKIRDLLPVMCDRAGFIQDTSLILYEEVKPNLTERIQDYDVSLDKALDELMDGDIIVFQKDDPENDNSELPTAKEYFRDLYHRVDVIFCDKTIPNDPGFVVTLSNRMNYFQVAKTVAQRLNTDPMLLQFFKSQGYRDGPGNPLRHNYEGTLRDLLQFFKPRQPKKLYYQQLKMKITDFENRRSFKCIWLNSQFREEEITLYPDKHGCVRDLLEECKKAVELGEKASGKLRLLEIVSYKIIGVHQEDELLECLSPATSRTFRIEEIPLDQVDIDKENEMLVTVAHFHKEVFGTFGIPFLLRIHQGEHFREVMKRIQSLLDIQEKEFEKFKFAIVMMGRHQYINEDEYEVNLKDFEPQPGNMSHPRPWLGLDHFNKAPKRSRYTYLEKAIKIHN
In words: USP7, Ub-PLA2 assay. It counts as biochemical. The settings on record: Ub-PLA2 / NBD C6-HPC fluorescence, 30 minute preincubation; read-out: EC50 for inhibition of USP7. The protocol: The purpose of this assay is to measure the inhibition of USP7 by various compounds of the invention synthesized according to the above-described methods. […] The vehicle control was 100% (v/v) DMSO. 1.6 μL aliquots of the diluted test compound and controls were dispensed into individual wells in a black walled 96 well plate. […] The data were normalized within a plate relative to the control wells using the equation % inhibition=(100−(((RFUcompound−RFUmean NEM) / (RFUmean DMSO−RFUmean NEM))×100)).
For `CC(C)CCNC(=O)c1cc([N+](=O)[O-])c(Sc2c(Cl)cncc2Cl)s1` [Example 110, 5-((3,5-dichloropyridin-4-yl)thio)-N-isopentyl-4-nitrothiophene-2-carboxamide], the EC50 was at most 1000 nM.
Take `CN1CCC(NC(=O)c2cc([N+](=O)[O-])c(Sc3c(Cl)cncc3Cl)s2)C1` (stereo not drawn) [Example 94, 5-((3,5-dichloropyridin-4-yl)thio)-N-(1-methylpyrrolidin-3-yl)-4-nitrothiophene-2-carboxamide]: the EC50 fell in the range of 1000 to 10000 nM.
Next, `O=C(NC1CC2CCC1C2)c1cc([N+](=O)[O-])c(Sc2c(Cl)cncc2Cl)s1` (stereo not drawn) [Example 177, N-(bicyclo[2.2.1]heptan-2-yl)-5-((3,5-dichloropyridin-4-yl)thio)-4-nitrothiophene-2-carboxamide]: at most 1000 nM; `O=C(NCc1cccnc1)c1cc([N+](=O)[O-])c(Sc2c(Cl)cncc2Cl)s1` [Example 101, 5-((3,5-dichloropyridin-4-yl)thio)-4-nitro-N-(pyridin-3-ylmethyl)thiophene-2-carboxamide]: at most 1000 nM; `CN1CCC(NC(=O)c2cc([N+](=O)[O-])c(Sc3c(Cl)cccc3Cl)s2)CC1` [Example 269, 5-((2,6-dichlorophenyl)thio)-N-(1-methylpiperidin-4-yl)-4-nitrothiophene-2-carboxamide]: 1000 to 10000 nM.
Under `O=C(NCc1ccccc1Cl)c1cc([N+](=O)[O-])c(Sc2c(Cl)cncc2Cl)s1` [Example 60, N-(2-chlorobenzyl)-5-((3,5-dichloropyridin-4-yl)thio)-4-nitrothiophene-2-carboxamide] stands 1000 to 10000 nM; under `COCCN1CC(NC(=O)c2cc([N+](=O)[O-])c(Sc3c(Cl)cncc3Cl)s2)CC1=O` (stereo not drawn) [Example 93, 5-((3,5-dichloropyridin-4-yl)thio)-N-(1-(2-methoxyethyl)-5-oxopyrrolidin-3-yl)-4-nitrothiophene-2-carboxamide], 1000 to 10000 nM.
Next, `CN1CCC(O)(CNC(=O)c2cc([N+](=O)[O-])c(Sc3c(Cl)cncc3Cl)s2)CC1` [Example 90, 5-((3,5-dichloropyridin-4-yl)thio)-N-((4-hydroxy-1-methylpiperidin-4-yl)methyl)-4-nitrothiophene-2-carboxamide]: 1000 to 10000 nM; `O=C(NCc1cccc(-c2ccccc2)c1)c1cc([N+](=O)[O-])c(Sc2c(Cl)cncc2Cl)s1` [Example 58, N-([1,1′-biphenyl]-3-ylmethyl)-5-((3,5-dichloropyridin-4-yl)thio)-4-nitrothiophene-2-carboxamide]: 1000 to 10000 nM.
`CN(C)CCC(NC(=O)c1cc([N+](=O)[O-])c(Sc2nc3ccccc3s2)s1)c1ccccc1` (stereo not drawn) [Example 254, 5-(benzo[d]thiazol-2-ylthio)-N-(3-(dimethylamino)-1-phenylpropyl)-4-nitrothiophene-2-carboxamide]: the EC50 lay within 1000 to 10000 nM.
Next, `CN1CCC(NC(=O)c2cc([N+](=O)[O-])c(Oc3c(Cl)cccc3Cl)s2)CC1` [Example 261, 5-(2,6-dichlorophenoxy)-N-(1-methylpiperidin-4-yl)-4-nitrothiophene-2-carboxamide]: over 10000 nM.
Under `CC(=O)c1cc([N+](=O)[O-])c([S+]([O-])c2ccc(Cl)cc2Cl)s1` (stereo not drawn) [Example 34, 1-[5-(2,4-dichlorophenyl)sulfinyl-4-nitro-2-thienyl]ethanone] stands over 10000 nM.
Next, `CN1CCC(NC(=O)c2cc([N+](=O)[O-])c(Sc3ccc(Cl)cc3Cl)s2)CC1` [Example 81, 5-((2,4-dichlorophenyl)thio)-N-(1-methylpiperidin-4-yl)-4-nitrothiophene-2-carboxamide]: 1000 to 10000 nM; `O=C(NCCc1ccccn1)c1cc([N+](=O)[O-])c(Sc2c(Cl)cncc2Cl)s1` [Example 109, 5-((3,5-dichloropyridin-4-yl)thio)-4-nitro-N-(2-(pyridin-2-yl)ethyl)thiophene-2-carboxamide]: at most 1000 nM; `CC(=O)c1cc([N+](=O)[O-])c(Sc2ccc3ccccc3c2)s1` [Example 11, 1-[5-(2-Naphthylsulfanyl)-4-nitro-2-thienyl]ethanone]: over 10000 nM.
For the molecule `CCOC(=O)c1cc([N+](=O)[O-])c(Sc2cccc(Cl)c2Cl)s1` [Example 41, Ethyl 5-(2,3-dichlorophenylsulfanyl)-4-nitrothiophene-2-carboxylate], the EC50 is over 10000 nM.
Under `CS(=O)(=O)CCCNC(=O)c1cc([N+](=O)[O-])c(Sc2c(Cl)cncc2Cl)s1` [Example 245, 5-((3,5-dichloropyridin-4-yl)thio)-N-(3-(methylsulfonyl)propyl)-4-nitrothiophene-2-carboxamide] stands 1000 to 10000 nM; under `CC(=O)c1cc([N+](=O)[O-])c(Sc2ccc3c(C)cc(=O)oc3c2)s1` [Example 38, 7-[(5-acetyl-3-nitro-2-thienyl)sulfanyl]-4-methyl-chromen-2-one], over 10000 nM; under `CN(C)CCCOc1cccc(CNC(=O)c2cc([N+](=O)[O-])c(Sc3c(Cl)cncc3Cl)s2)c1` [Example 126, 5-[(3,5-dichloro-4-pyridyl)sulfanyl]-N-[[3-(3-dimethylaminopropoxy)phenyl]methyl]-4-nitro-thiophene-2-carboxamide], at most 1000 nM.
Next, `COc1cc(CNC(=O)c2cc([N+](=O)[O-])c(Sc3c(Cl)cncc3Cl)s2)cc(OC)c1` [Example 69, 5-((3,5-dichloropyridin-4-yl)thio)-N-(3,5-dimethoxybenzyl)-4-nitrothiophene-2-carboxamide]: 1000 to 10000 nM.
Under `CN1CCC(NC(=O)c2cc([N+](=O)[O-])c(Sc3c(Cl)c[n+]([O-])cc3Cl)s2)CC1` [Example 242, 3,5-dichloro-4-((5-((1-methylpiperidin-4-yl)carbamoyl)-3-nitrothiophen-2-yl)thio)pyridine 1-oxide] stands 1000 to 10000 nM; under `O=C(Nc1ccc(F)cc1)c1cc([N+](=O)[O-])c(Sc2c(Cl)cncc2Cl)s1` [Example 136, 5-((3,5-dichloropyridin-4-yl)thio)-N-(4-fluorophenyl)-4-nitrothiophene-2-carboxamide], at most 1000 nM; under `O=C(Nc1cccc(Br)c1)c1cc([N+](=O)[O-])c(Sc2c(Cl)cncc2Cl)s1` [Example 133, N-(3-bromophenyl)-5-((3,5-dichloropyridin-4-yl)thio)-4-nitrothiophene-2-carboxamide], at most 1000 nM.
Turning to `O=C(NCCc1ccc(F)cc1)c1cc([N+](=O)[O-])c(Sc2c(Cl)cncc2Cl)s1` [Example 120, 5-((3,5-dichloropyridin-4-yl)thio)-N-(4-fluorophenethyl)-4-nitrothiophene-2-carboxamide], the EC50 was at most 1000 nM.
Under `COC(=O)c1cc([N+](=O)[O-])c(Sc2c(Cl)cncc2Cl)s1` [Example 43, Methyl 5-[(3,5-dichloro-4-pyridyl)sulfanyl]-4-nitro-thiophene-2-carboxylate] stands 1000 to 10000 nM.
Regarding `CC(=O)c1cc([N+](=O)[O-])c(Sc2ccncc2Cl)s1` [Example 39, 1-[5-[(3-chloro-4-pyridyl)sulfanyl]-4-nitro-2-thienyl]ethanone], the EC50 was over 10000 nM.
Next, `O=C(NCC(=O)N1CCC(F)CC1)c1cc([N+](=O)[O-])c(Sc2c(Cl)cncc2Cl)s1` [Example 216, 5-((3,5-dichloropyridin-4-yl)thio)-N-(2-(4-fluoropiperidin-1-yl)-2-oxoethyl)-4-nitrothiophene-2-carboxamide]: 1000 to 10000 nM; `CC(=O)c1cc([N+](=O)[O-])c(Sc2ccc(-c3ccccc3)cc2)s1` [Example 16, 1-[4-nitro-5-(4-phenylphenyl)sulfanyl-2-thienyl]ethanone]: over 10000 nM.
Under `CC(=O)c1cc([N+](=O)[O-])c(Sc2ccc(C(F)(F)F)cc2)s1` [Example 10, 1-{5-[4-(Trifluoromethyl)phenylsulfanyl]-4-nitro-2-thienyl}ethanone] stands 1000 to 10000 nM; under `Cc1csc(NC(=O)c2cc([N+](=O)[O-])c(Sc3c(Cl)cncc3Cl)s2)n1` [Example 87, 5-((3,5-dichloropyridin-4-yl)thio)-N-(4-methylthiazol-2-yl)-4-nitrothiophene-2-carboxamide], 1000 to 10000 nM; under `O=C(NCc1cccc(C(F)(F)F)c1)c1cc([N+](=O)[O-])c(Sc2c(Cl)cncc2Cl)s1` [Example 148, 5-((3,5-dichloropyridin-4-yl)thio)-4-nitro-N-(3-(trifluoromethyl)benzyl)thiophene-2-carboxamide], at most 1000 nM.
Next, `O=C(NCCCN1CCCCC1)c1cc([N+](=O)[O-])c(Sc2c(Cl)cncc2Cl)s1` [Example 100, 5-((3,5-dichloropyridin-4-yl)thio)-4-nitro-N-(3-(piperidin-1-yl)propyl)thiophene-2-carboxamide]: at most 1000 nM; `COc1ccc(NC(=O)c2cc([N+](=O)[O-])c(Sc3c(Cl)cncc3Cl)s2)c(C)c1` [Example 132, 5-((3,5-dichloropyridin-4-yl)thio)-N-(4-methoxy-2-methylphenyl)-4-nitrothiophene-2-carboxamide]: at most 1000 nM; `CCOC(=O)CNC(=O)c1cc([N+](=O)[O-])c(Sc2c(Cl)cncc2Cl)s1` [Example 209, Ethyl 2-(5-((3,5-dichloropyridin-4-yl)thio)-4-nitrothiophene-2-carboxamido)acetate]: 1000 to 10000 nM.
With `CN1CCC(NC(=O)c2cc([N+](=O)[O-])c(Oc3c(Cl)cncc3Cl)s2)CC1` [Example 259, 5-((3,5-dichloropyridin-4-yl)oxy)-N-(1-methylpiperidin-4-yl)-4-nitrothiophene-2-carboxamide], the 50% effective concentration (EC50) is over 10000 nM.
As for `O=C(Nc1ccc(O)cc1)c1cc([N+](=O)[O-])c(Sc2c(Cl)cncc2Cl)s1` [Example 181, 5-((3,5-dichloropyridin-4-yl)thio)-N-(4-hydroxyphenyl)-4-nitrothiophene-2-carboxamide], the concentration for a half-maximal effect (EC50) was at most 1000 nM.
